Measured values from ChEMBL document CHEMBL1153463 (Bioorg Med Chem Lett, 2009).

Legend:
[1] = Metabolic stability in human liver mocrosomes; settings: liver microsomes
[2] = system: Respiratory syncytial virus; assay: Antiviral activity against RSV assessed as inhibition of viral replication by cell based assay; type: functional, organism-based; settings: human respiratory syncytial virus
[3] = Permeability across human Caco-2 cells
[4] = system: Respiratory syncytial virus; assay: Antiviral activity against RSV infected in BALB/c mouse assessed as log reduction in viral titer; type: functional
in vivo [5] = settings: rat, iv, 1 mg/kg
in vivo [6] = settings: rat, po, 5 mg/kg
in vivo [7] = settings: rat, iv, 1 mg/kg; remark: listed apart in the source
in vivo [8] = settings: rat, po, 5 mg/kg; remark: listed apart in the source
[9] = system: Respiratory syncytial virus; assay: Antiviral activity against RSV infected in BALB/c mouse assessed as reduction viral replication by RT-PCR; type: functional
[10] = Volume of distribution at steady state in rat at 1 mg/kg, iv; settings: in vivo

SMILES | half-life [1] [min] | EC50 [2] [nM] | also measured
COCCCn1c(CN2C(=O)/C(=N/OC)c3ccccc32)nc2ccccc21 | 16 | 30 | –
CC(C)(C)O/N=C1/C(=O)N(Cc2nc3ccccc3n2CCCCO)c2ccccc21 | – | 1130 | –
CS(=O)(=O)CCCn1c(CN2C(=O)/C(=N/OCCF)c3ccncc32)nc2ccccc21 | > 100 | 12.5 | Papp [3]: 1 ×10⁻⁶ cm/s
CS(=O)(=O)CCCn1c(CN2C(=O)/C(=N/OCc3ccccn3)c3ccncc32)nc2ccccc21 | 21 | 29 | Papp [3]: 1.6 ×10⁻⁶ cm/s
COCCCn1c(CN2C(=O)/C(=N/OCS(=O)(=O)O)c3ccccc32)nc2ccccc21 | – | 46 | –
C=CCCO/N=C1/C(=O)N(Cc2nc3ccccc3n2CCCOC)c2ccccc21 | – | 260 | –
C=CCCCO/N=C1/C(=O)N(Cc2nc3ccccc3n2CCCOC)c2ccccc21 | – | 192 | –
CS(=O)(=O)c1ccc(CO/N=C2/C(=O)N(Cc3nc4ccccc4n3CCCCO)c3ncccc32)cc1 | 5.3 | 7.3 | Papp [3]: 7.1 ×10⁻⁶ cm/s
O=C1/C(=N/OCCF)c2ccncc2N1Cc1nc2ccccc2n1CCCCO | 100 | 54.2 | Papp [3]: 5.3 ×10⁻⁶ cm/s; deltaTCID50 [4]: 0.68
CC(C)CCn1c(CN2C(=O)/C(=N/OCc3ccc(C(=O)N(C)C)cc3)c3ccccc32)nc2ccccc21 | – | 9 | –
CS(=O)(=O)c1ccc(CO/N=C2/C(=O)N(Cc3nc4ccccc4n3CCCCO)c3ccccc32)cc1 | 13 | 12 | Papp [3]: 15.2 ×10⁻⁶ cm/s
COCCCn1c(CN2C(=O)/C(=N/OC(C)C)c3ccccc32)nc2ccccc21 | – | 257 | –
COCCCn1c(CN2C(=O)/C(=N/OC3CCOCC3)c3ccccc32)nc2ccccc21 | – | 206 | –
COCCCn1c(CN2C(=O)/C(=N/OCC(N)=O)c3ccccc32)nc2ccccc21 | 21 | 154 | Papp [3]: 1.5 ×10⁻⁶ cm/s
COCCCn1c(CN2C(=O)/C(=N/OCCCN3CCCCC3)c3ccccc32)nc2ccccc21 | – | 290 | –
COCCCn1c(CN2C(=O)/C(=N/OCc3ccncc3)c3ccccc32)nc2ccccc21 | 0.6 | 242 | Papp [3]: 21.4 ×10⁻⁶ cm/s
CO/N=C1/C(=O)N(Cc2nc3ccccc3n2CCCCF)c2cnccc21 | 26 | 106 | Papp [3]: 12.8 ×10⁻⁶ cm/s
CC(=O)OCCCCn1c(CN2C(=O)/C(=N/OCc3ccc(S(C)(=O)=O)cc3)c3ccccc32)nc2ccccc21 | – | 5 | –
COCCCn1c(CN2C(=O)/C(=N/OCC(O)CC#N)c3ccccc32)nc2ccccc21 (centres undefined) | – | 65 | –
CCO/N=C1/C(=O)N(Cc2nc3ccccc3n2CCCOC)c2ccccc21 | – | 59 | –
N#CCCCn1c(CN2C(=O)/C(=N/OCC(N)=O)c3ccccc32)nc2ccccc21 | – | 45 | Papp [3]: 3 ×10⁻⁶ cm/s
CCCO/N=C1/C(=O)N(Cc2nc3ccccc3n2CCCOC)c2ccccc21 | – | 147 | –
C=CCO/N=C1/C(=O)N(Cc2nc3ccccc3n2CCCS(C)(=O)=O)c2cnccc21 | – | 12.4 | –
COCCCn1c(CN2C(=O)/C(=[N+](/[O-])C3CCCCC3)c3ccccc32)nc2ccccc21 | – | 285 | –
COCCCn1c(CN2C(=O)/C(=N/OC3CCCCC3)c3ccccc32)nc2ccccc21 | – | 652 | –
CC(=O)OCCCCn1c(CN2C(=O)/C(=N/O)c3cccnc32)nc2ccccc21 | 1.3 | 49.7 | Papp [3]: 1.2 ×10⁻⁶ cm/s
C=CCO/N=C1/C(=O)N(Cc2nc3ccccc3n2CCCOC)c2ccccc21 | – | 428 | –

SMILES | half-life [1] [min] | EC50 [2] [nM] | also measured
COCCCn1c(CN2C(=O)/C(=N/OCCCCOC(C)=O)c3ccccc32)nc2ccccc21 | – | 62 | –
COCCCn1c(CN2C(=O)/C(=N/OCCN(C)C)c3ccccc32)nc2ccccc21 | – | 370 | –
CO/N=C1/C(=O)N(Cc2nc3ccccc3n2CCCCO)c2cnccc21 | 84 | 30.9 | Papp [3]: 9.8 ×10⁻⁶ cm/s
COCCCn1c(CN2C(=O)/C(=N/OCCCC#N)c3ccccc32)nc2ccccc21 | – | 79 | –
CC(=O)OCCCCn1c(CN2C(=O)/C(=N/OCCF)c3cccnc32)nc2ccccc21 | – | 54.6 | –
COCCCn1c(CN2C(=O)/C(=N/OCCN3CCCCC3)c3ccccc32)nc2ccccc21 | – | 682 | –
COCCCn1c(CN2C(=O)/C(=N/OCc3ccccn3)c3ccccc32)nc2ccccc21 | – | 238 | –
CC(C)CCn1c(CN2C(=O)/C(=N/Oc3ccccc3)c3ccccc32)nc2ccccc21 | – | 375 | –
CC(C)CCn1c(CN2C(=O)/C(=N/OCc3ccc(C(=O)O)cc3)c3ccccc32)nc2ccccc21 | – | 16 | –
CN(C)CCn1c(CN2C(=O)/C(=N/OCc3ccc(C(=O)O)cc3)c3ccccc32)nc2ccccc21 | – | 16.5 | –
CCC(CC)/[N+]([O-])=C1\C(=O)N(Cc2nc3ccccc3n2CCCOC)c2ccccc21 | – | 898 | –
COCCCn1c(CN2C(=O)/C(=N/OCC(=O)O)c3ccccc32)nc2ccccc21 | – | 295 | –
COCCCn1c(CN2C(=O)/C(=N/OC(CC(O)O)C(O)O)c3ccccc32)nc2ccccc21 (centres undefined) | – | 19 | –
CO/N=C1/C(=O)N(Cc2nc3ccccc3n2CCCCOC(C)=O)c2ccccc21 | 1.5 | 30 | –
COCCCn1c(CN2C(=O)/C(=N/OCC(F)(F)F)c3ccccc32)nc2ccccc21 | 3.2 | 2740 | Papp [3]: 65.2 ×10⁻⁶ cm/s
O=C1/C(=N/OCCF)c2ccncc2N1Cc1nc2ccccc2n1CCCCF | 38 | 61.9 | Papp [3]: 15.8 ×10⁻⁶ cm/s
COCCCn1c(CN2C(=O)/C(=N/OCC3CCC3)c3ccccc32)nc2ccccc21 | – | 246 | –
N#CCCCn1c(CN2C(=O)/C(=N/OCC(F)(F)F)c3cccnc32)nc2ccccc21 | 48 | 112 | Papp [3]: 18 ×10⁻⁶ cm/s
COCCCn1c(CN2C(=O)/C(=N/OCc3ccc(C(=O)N(C)C)cc3)c3ccccc32)nc2ccccc21 | – | 30 | Papp [3]: 23.7 ×10⁻⁶ cm/s
O=C1/C(=N/O)c2ccncc2N1Cc1nc2ccccc2n1CCCCF | 100 | 17.9 | Papp [3]: 2.7 ×10⁻⁶ cm/s
COC(=O)c1ccc(CO/N=C2/C(=O)N(Cc3nc4ccccc4n3CCN(C)C)c3ccccc32)cc1 | 0.6 | 23 | –
CC(C)CCn1c(CN2C(=O)/C(=N/Oc3ccc(Br)cc3)c3ccccc32)nc2ccccc21 | – | 705 | –
C#CCCCO/N=C1/C(=O)N(Cc2nc3ccccc3n2CCCOC)c2ccccc21 | – | 64 | –
CCCCCO/N=C1/C(=O)N(Cc2nc3ccccc3n2CCCOC)c2ccccc21 | – | 188 | –
CO/N=C1/C(=O)N(Cc2nc3ccccc3n2CCCC#N)c2ncccc21 | 28 | 92.8 | Papp [3]: 16 ×10⁻⁶ cm/s
COCCCn1c(CN2C(=O)/C(=[N+](/[O-])C(C)C)c3ccccc32)nc2ccccc21 | – | 230 | –
COCCCn1c(CN2C(=O)/C(=N/OCC3CCCO3)c3ccccc32)nc2ccccc21 (centres undefined) | – | 152 | –

SMILES | half-life [1] [min] | EC50 [2] [nM] | also measured
CS(=O)(=O)CCCn1c(CN2C(=O)/C(=N/OCc3ccc(S(C)(=O)=O)cc3)c3cnccc32)nc2ccccc21 | 200 | 10600 | –
CO/N=C1/C(=O)N(Cc2nc3ccccc3n2CCCCO)c2ccccc21 | – | 10 | –
O=C1/C(=N/OCCF)c2cccnc2N1Cc1nc2ccccc2n1CCCCO | 44 | 43.1 | Papp [3]: 11.5 ×10⁻⁶ cm/s; deltaTCID50 [4]: 0.62
COC(=O)c1ccc(CO/N=C2/C(=O)N(Cc3nc4ccccc4n3CCC(C)C)c3ccccc32)cc1 | 0.6 | 23 | –
COCCCn1c(CN2C(=O)/C(=N/OCCF)c3ccccc32)nc2ccccc21 | – | 71 | –
O=C1/C(=N/OCC(F)(F)F)c2cccnc2N1Cc1nc2ccccc2n1CCCCO | 65 | 79.8 | Papp [3]: 15.4 ×10⁻⁶ cm/s
CO/N=C1/C(=O)N(Cc2nc3ccccc3n2CCC(C)C)c2ccccc21 | – | 87 | –
N#CCCCn1c(CN2C(=O)/C(=N/O)c3cccnc32)nc2ccccc21 | 100 | 22.7 | Papp [3]: 4.2 ×10⁻⁶ cm/s
COC(=O)c1ccc(CO/N=C2/C(=O)N(Cc3nc4ccccc4n3CCNS(C)(=O)=O)c3ccccc32)cc1 | – | 51 | –
COCCCn1c(CN2C(=O)/C(=N/OCC3CC3)c3ccccc32)nc2ccccc21 | – | 96 | –
COCCCn1c(CN2C(=O)/C(=N/OCCC3CCCCC3)c3ccccc32)nc2ccccc21 | – | 384 | –
CCN(CC)C(=O)CO/N=C1/C(=O)N(Cc2nc3ccccc3n2CCCOC)c2ccccc21 | – | 26 | –
CC(C)CCn1c(CN2C(=O)/C(=N/OCc3ccccc3)c3ccccc32)nc2ccccc21 | – | 202 | –
N#CCCCn1c(CN2C(=O)/C(=N/OCCF)c3cccnc32)nc2ccccc21 | 55 | 57.3 | Papp [3]: 15.5 ×10⁻⁶ cm/s
COCCCn1c(CN2C(=O)/C(=N/OCc3cccnc3)c3ccccc32)nc2ccccc21 | – | 141 | –
COCCCn1c(CN2C(=O)/C(=N/OCc3ccc(C(=O)OC)cc3)c3ccccc32)nc2ccccc21 | – | 50 | –
CS(=O)(=O)c1ccc(CO/N=C2/C(=O)N(Cc3nc4ccccc4n3CCCC#N)c3ccncc32)cc1 | 29 | 10200 | –
CO/N=C1/C(=O)N(Cc2nc3ccccc3n2CCCCO)c2ncccc21 | 31 | 31.2 | Papp [3]: 14.1 ×10⁻⁶ cm/s
COCCCn1c(CN2C(=O)/C(=N/OCCCN(C)C)c3ccccc32)nc2ccccc21 | – | 240 | –
CS(=O)(=O)CCCn1c(CN2C(=O)/C(=N/OCCF)c3cccnc32)nc2ccccc21 | > 100 | 29.2 | Papp [3]: 18.2 ×10⁻⁶ cm/s; clearance (in vivo [5]): 130 mL/min/kg; bioavailability (in vivo [6]): 14%; half-life (in vivo [7]): 12 min; Cmax (in vivo [8]): 14 ng/mL; deltaTCID50 [4]: 1.05; Ratio [9]: 45; Vd [10]: 1.8 L/kg
CC(C)CCn1c(CN2C(=O)/C(=N/O)c3ccccc32)nc2ccccc21 | – | 10 | –
N#CCCCn1c(CN2C(=O)/C(=N/OCC(F)(F)F)c3ccccc32)nc2ccccc21 | 18 | 66 | –
CCCCO/N=C1/C(=O)N(Cc2nc3ccccc3n2CCCOC)c2ccccc21 | – | 261 | –
COCCCn1c(CN2C(=O)/C(=N/OCCCF)c3ccccc32)nc2ccccc21 | – | 125 | –
CCC(CC)O/N=C1/C(=O)N(Cc2nc3ccccc3n2CCCOC)c2ccccc21 | – | 935 | –
